Starred links: 1 amine or outer side, 2 acyl side, 3 side chain; linkers in the order of their positions; H or OH if unused. Positions of bridges follow the written chain, without caps; N, C: chain ends. Non-standard residues stand in square brackets, D forms with d. Chains are numbered I, II in the order given. X1 = O=C(CCOCCOCCOCCN(CCOCCOCCOCCn1cc(CCC(=O)[*:2])nn1)CCOCCOCCOCCn1cc(CCC(=O)[*:3])nn1)[*:1]; TATA = O=C(CC[*:1])N1CN(C(=O)CC[*:2])CN(C(=O)CC[*:3])C1; d1Nal = N[C@H](Cc1cccc2ccccc12)C(=O)O; Hyp = O=C(O)[C@@H]1C[C@@H](O)CN1; hArg = N=C(N)NCCCC[C@H](N)C(=O)O; tBuAla = CC(C)(C)C[C@H](N)C(=O)O; Cba = N[C@@H](CC1CCC1)C(=O)O; Nle = CCCC[C@H](N)C(=O)O
What was measured:
CD137 [1] = target: T1, CD137 (Homo sapiens, UniProt Q07011); test: CD137 reporter assay (Promega CD137 luciferase reporter, Jurkat cells) in co-culture with Nectin-4-expressing tumor cells; type: cell-based; parameters: host or cells: Jurkat reporter cells; settings: co-culture with HT1376, Table 2A; for EC50: EC50 (nM)
T1 sequence (Q07011 24-255): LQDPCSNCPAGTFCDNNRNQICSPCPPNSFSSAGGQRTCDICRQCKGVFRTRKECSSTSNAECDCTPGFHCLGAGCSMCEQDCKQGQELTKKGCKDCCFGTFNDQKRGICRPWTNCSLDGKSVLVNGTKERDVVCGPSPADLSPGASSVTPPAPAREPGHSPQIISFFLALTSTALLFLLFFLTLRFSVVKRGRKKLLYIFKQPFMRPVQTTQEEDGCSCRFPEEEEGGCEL

[2] = Pharmacokinetics in SD rats; type: in vivo; settings: rat, in vivo, IV Inf (15 minutes)
Experimental: Male SD Rats were dosed with each heterotandem Bicycle peptide complex formulated in 25 mM Histidine HCl, 10% sucrose pH 7 by IV bolus or IV infusion (15 minutes). Serial bleeding (about 80 μL blood/time point) was performed via submandibular or saphenous vein at each time point. All blood samples were immediately transferred into prechilled microcentrifuge tubes containing 2 μL K2-EDTA (0.5M) as anti-coagulant and placed on wet ice. Blood samples were immediately processed for plasma by centrifugation at approximately 4° C., 3000 g. The precipitant including internal standard was immediately added into the plasma, mixed well and centrifuged at 12,000 rpm, 4° C. for 10 minutes. The supernatant was transferred into pre-labeled polypropylene microcentrifuge tubes, and then quick-frozen over dry ice. The samples were stored at […] or below as needed until analysis. 7.5 μL of the supernatant samples were directly injected for LC-MS/MS analysis using an Orbitrap Q Exactive in positive ion mode to determine the concentrations of analyte. Plasma concentration versus time data were analyzed by non-compartmental approaches using the Phoenix WinNonlin 6.3 software program. C0, CI, Vdss, T½, AUC(0-last), AUC(0-inf), MRT(0-last), MRT(0-inf) and graphs of plasma concentration versus time profile were reported.

CD137 [3] = target: T1, CD137; test: CD137 reporter assay (Promega, Jurkat cells) in co-culture with EphA2-expressing tumor cells (A549, PC3, HT29); type: cell-based; parameters: host or cells: Jurkat reporter cells; settings: for fold induction: CD137 reporter coculture assay with PC3 tumor cells, read-out: Emax (fold induction over background); for EC50: EC50, CD137 reporter coculture assay with PC3 tumor cells
Outline: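 Readout is Bio-Glo luminescence after 6 h, 37° C co-culture of CD137 reporter Jurkat cells, target tumor cells (EphA2: A549, PC3, HT29; PD-L1: RKO) and titrated test articles in 1% FBS RPMI. EC50 (nM) and maximal induction come from fold change over untreated co-culture.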

Compound	fold induction (CD137 [3])	EC50 (CD137 [3])	further results
CCCC[C@@H]1NC(=O)[C@H](Cc2ccc(O)cc2)NC(=O)[C@@H]2CCCN2C(=O)[C@H](CC(=O)O)NC(=O)[C@H](C)NC(=O)[C@H](Cc2ccccc2)NC(=O)[C@@H]2CSCCC(=O)N3CN(CN(C3)C(=O)CCSC[C@@H](C(=O)N[C@@H](C)C(N)=O)NC1=O)C(=O)CCSC[C@H](NC(C)=O)C(=O)N[C@@H](CC(C)(C)C)C(=O)N1CCC[C@H]1C(=O)N[C@@H](CCC(=O)O)C(=O)N[C@H](CCCCNC(=O)CCc1cn(CCOCCOCCOCCOCCOCCOCCOCCOCCOCCOCCNC(=O)c3cc(C(=O)NCCOCCOCCOCCOCCOCCOCCOCCOCCOCCOCCn4cc(CCC(=O)NCCCC[C@H]5NC(=O)[C@H](CCC(=O)O)NC(=O)[C@@H]6CCCN6C(=O)[C@H](CC(C)(C)C)NC(=O)[C@@H](NC(C)=O)CSCCC(=O)N6CN7CN(C6)C(=O)CCSC[C@H](NC(=O)[C@H](Cc6ccc(O)cc6)NC(=O)[C@@H]6CCCN6C5=O)C(=O)N[C@@H](Cc5ccccc5)C(=O)N[C@@H](C)C(=O)N[C@@H](CC(=O)O)C(=O)N5CCC[C@H]5C(=O)N[C@@H](Cc5ccc(O)cc5)C(=O)N[C@@H](CCCC)C(=O)N[C@H](C(=O)N[C@@H](C)C(N)=O)CSCCC7=O)nn4)cc(C(=O)NCCOCCOCCOCCOCCOCCOCCOCCOCCOCCOCCn4cc(CCC(=O)N[C@H]5CSCCC(=O)N6CN7CN(C6)C(=O)CCSC[C@H](NC(=O)[C@@H](CC(=O)O)NC(=O)[C@H](Cc6cccc8ccccc68)NC(=O)[C@@H]6CCCN6C5=O)C(=O)N[C@@H](CCSC)C(=O)N[C@@H](CCCCNC(=N)N)C(=O)N[C@@H](CC(=O)O)C(=O)N[C@@H](Cc5c[nH]c6ccccc56)C(=O)N[C@@H](CO)C(=O)N[C@@H]([C@@H](C)O)C(=O)N5CCC[C@H]5C(=O)N5C[C@H](O)C[C@H]5C(=O)N[C@@H](Cc5c[nH]c6ccccc56)C(=O)N[C@H](C(N)=O)CSCCC7=O)nn4)c3)nn1)C(=O)N1CCC[C@H]1C(=O)N[C@@H](Cc1ccc(O)cc1)C(=O)N2 [BCY10918]	–	–	EC50 (CD137 [1]): 0.16 nM
CCCC[C@@H]1NC(=O)[C@H](Cc2ccc(O)cc2)NC(=O)[C@@H]2CCCN2C(=O)[C@H](CC(=O)O)NC(=O)[C@H](C)NC(=O)[C@H](Cc2ccccc2)NC(=O)[C@@H]2CSCCC(=O)N3CN(CN(C3)C(=O)CCSC[C@@H](C(=O)N[C@@H](CNC(=O)CCc3cn(CCOCCOCCOCCOCCOCCOCCOCCOCCOCCOCCNC(=O)c4cc(C(=O)NCCOCCOCCOCCOCCOCCOCCOCCOCCOCCOCCn5cc(CCC(=O)NC[C@H](NC(=O)[C@@H]6CSCCC(=O)N7CN8CN(C7)C(=O)CCSC[C@H](NC(=O)[C@H](Cc7ccc(O)cc7)NC(=O)[C@@H]7CCCN7C(=O)[C@@H](C)NC(=O)[C@H](CCC(=O)O)NC(=O)[C@@H]7CCCN7C(=O)[C@H](CC(C)(C)C)NC(=O)[C@@H](NC(C)=O)CSCCC8=O)C(=O)N[C@@H](Cc7ccccc7)C(=O)N[C@@H](C)C(=O)N[C@@H](CC(=O)O)C(=O)N7CCC[C@H]7C(=O)N[C@@H](Cc7ccc(O)cc7)C(=O)N[C@@H](CCCC)C(=O)N6)C(N)=O)nn5)cc(C(=O)NCCOCCOCCOCCOCCOCCOCCOCCOCCOCCOCCn5cc(CCC(=O)N[C@H]6CSCCC(=O)N7CN8CN(C7)C(=O)CCSC[C@H](NC(=O)[C@@H](CC(=O)O)NC(=O)[C@H](Cc7cccc9ccccc79)NC(=O)[C@@H]7CCCN7C6=O)C(=O)N[C@@H](CCSC)C(=O)N[C@@H](CCCCNC(=N)N)C(=O)N[C@@H](CC(=O)O)C(=O)N[C@@H](Cc6c[nH]c7ccccc67)C(=O)N[C@@H](CO)C(=O)N[C@@H]([C@@H](C)O)C(=O)N6CCC[C@H]6C(=O)N6C[C@H](O)C[C@H]6C(=O)N[C@@H](Cc6c[nH]c7ccccc67)C(=O)N[C@H](C(N)=O)CSCCC8=O)nn5)c4)nn3)C(N)=O)NC1=O)C(=O)CCSC[C@H](NC(C)=O)C(=O)N[C@@H](CC(C)(C)C)C(=O)N1CCC[C@H]1C(=O)N[C@@H](CCC(=O)O)C(=O)N[C@H](C)C(=O)N1CCC[C@H]1C(=O)N[C@@H](Cc1ccc(O)cc1)C(=O)N2 [BCY10919]	–	–	EC50 (CD137 [1]): 0.19 nM; Emax (CD137 [1]): 62 fold induction over background
I: A[hArg]DC[Hyp]LVNPLCLHP[dD]W[hArg]C-NH2 / II: Ac-C[tBuAla]PE[dK]PYCFADPY[Nle]C-NH2 / III: Ac-C[tBuAla]PE[dK]PYCFADPY[Nle]C-NH2 (linker I:4-I:11-I:18, II:1-II:8-II:15, III:1-III:8-III:15 via TATA; linker I:N-II:5-III:5 via X1) [BCY12724]	–	–	half-life ([2]; iv, read-out: T1/2 (converted)): 1.5 h; clearance ([2]; read-out: Clp): 13 mL/min/kg; Vd ([2]; read-out: Vdss): 1.2 L/kg
I: [d1Nal][hArg]DC[Hyp][Cba]VNPLCLEP[dA]WTC[dA]-NH2 / II: Ac-C[tBuAla]PE[dK]PYCFADPY[Nle]CA-NH2 / III: Ac-C[tBuAla]PE[dK]PYCFADPY[Nle]CA-NH2 (linker I:4-I:11-I:18, II:1-II:8-II:15, III:1-III:8-III:15 via TATA; linker I:N-II:5-III:5 via X1) [BCY13278]	37.9	0.14 nM	–
I: [dA]EDC[Hyp]LVNPLCLEP[dD]WTC-NH2 / II: Ac-C[tBuAla]PE[dK]PYCFADPY[Nle]CA-NH2 / III: Ac-C[tBuAla]PE[dK]PYCFADPY[Nle]CA-NH2 (linker I:4-I:11-I:18, II:1-II:8-II:15, III:1-III:8-III:15 via TATA; linker I:N-II:5-III:5 via X1) [BCY13280]	38.1	0.19 nM	–
I: [dA][dA]DC[Hyp]LVNPLCLEP[dD]WTC-NH2 / II: Ac-C[tBuAla]PE[dK]PYCFADPY[Nle]CA-NH2 / III: Ac-C[tBuAla]PE[dK]PYCFADPY[Nle]CA-NH2 (linker I:4-I:11-I:18, II:1-II:8-II:15, III:1-III:8-III:15 via TATA; linker I:N-II:5-III:5 via X1) [BCY13281]	35.6	0.17 nM	–
I: [dA][hArg]DC[Hyp][Cba]VNPLCLEP[dA]WTC[dA]-NH2 / II: Ac-C[tBuAla]PE[dK]PYCFADPY[Nle]CA-NH2 / III: Ac-C[tBuAla]PE[dK]PYCFADPY[Nle]CA-NH2 (linker I:4-I:11-I:18, II:1-II:8-II:15, III:1-III:8-III:15 via TATA; linker I:N-II:5-III:5 via X1) [BCY13277]	51.1	0.08 nM	–
I: [dA][hArg]DC[Hyp][Cba]VNPLCLEP[dD]WTC[dA]-NH2 / II: Ac-C[tBuAla]PE[dK]PYCFADPY[Nle]CA-NH2 / III: Ac-C[tBuAla]PE[dK]PYCFADPY[Nle]CA-NH2 (linker I:4-I:11-I:18, II:1-II:8-II:15, III:1-III:8-III:15 via TATA; linker I:N-II:5-III:5 via X1) [BCY13052]	32.9	0.21 nM	–
